Data as given in ChEMBL document CHEMBL3217615, “Novel 3,5-bis(arylidiene)-4-piperidone based monocarbonyl analogs of curcumin: anticancer activity evaluation and mode of action study” (2014).

Tests used:
Assay type in all cases: functional
HT-29 = assay: Growth inhibition of human HT-29 cells assessed as cell growth at 10^-8 M after 48 hrs by sulforhodamine B assay; settings: HT-29, 48 h
K562 = assay: Growth inhibition of human K562 cells assessed as cell growth at 10^-7 M after 48 hrs by sulforhodamine B assay; settings: K562, 48 h, read-out: Activity
[1] = Growth inhibition of human NCI-ADR-RES cells after 48 hrs by sulforhodamine B assay
HOP-62 [2] = assay: Growth inhibition of human HOP62 cells assessed as cell growth at 10^-8 M after 48 hrs by sulforhodamine B assay; settings: HOP-62, 48 h
SN12C = assay: Growth inhibition of human SN12C cells assessed as cell growth at 10^-7 M after 48 hrs by sulforhodamine B assay; settings: read-out: Activity
A498 [3] = assay: Growth inhibition of human A498 cells assessed as cell growth at 10^-6 M after 48 hrs by sulforhodamine B assay; settings: A498, 48 h, read-out: Activity
[4] = Growth inhibition of human OVCAR4 cells assessed as cell growth at 10^-4 M after 48 hrs by sulforhodamine B assay; settings: OVCAR-4, 48 h, read-out: Activity
COLO 205 = assay: Induction of apoptosis in human COLO205 cells assessed as caspase 3/7 activation at 10 uM by FLICA
HL-60(TB) = assay: Growth inhibition of human HL-60(TB) cells assessed as cell growth at 10^-4 M after 48 hrs by sulforhodamine B assay; settings: HL-60, 48 h, read-out: Activity
SF-268 = assay: Growth inhibition of human SF268 cells assessed as cell growth at 10^-4 M after 48 hrs by sulforhodamine B assay; settings: SF-268, 48 h, read-out: Activity
HOP-62 [5] = assay: Growth inhibition of human HOP62 cells after 48 hrs by sulforhodamine B assay; settings: HOP-62, 48 h
HCT-116 = assay: Growth inhibition of human HCT116 cells assessed as cell growth at 10^-8 M after 48 hrs by sulforhodamine B assay; settings: HCT-116, 48 h
[6] = Growth inhibition of human BT549 cells assessed as cell growth at 10^-8 M after 48 hrs by sulforhodamine B assay; settings: BT-549, 48 h
NCI-H226 = assay: Growth inhibition of human NCI-H226 cells assessed as cell growth at 10^-7 M after 48 hrs by sulforhodamine B assay; settings: NCI-H226, 48 h, read-out: Activity
DU-145 [7] = assay: Growth inhibition of human DU145 cells assessed as cell growth at 10^-7 M after 48 hrs by sulforhodamine B assay; settings: DU-145, 48 h, read-out: Activity
NCI-H460 [8] = assay: Growth inhibition of human NCI-H460 cells assessed as cell growth at 10^-7 M after 48 hrs by sulforhodamine B assay; settings: NCI-H460, 48 h, read-out: Activity
NCI-H460 [9] = assay: Growth inhibition of human NCI-H460 cells assessed as cell growth at 10^-6 M after 48 hrs by sulforhodamine B assay; settings: NCI-H460, 48 h, read-out: Activity
786-0 = assay: Growth inhibition of human 786-0 cells assessed as cell growth at 10^-7 M after 48 hrs by sulforhodamine B assay; settings: 786-0, 48 h, read-out: Activity
[10] = Growth inhibition of human OVCAR4 cells assessed as cell growth at 10^-6 M after 48 hrs by sulforhodamine B assay; settings: OVCAR-4, 48 h, read-out: Activity
T47D = assay: Growth inhibition of human T47D cells assessed as cell growth at 10^-7 M after 48 hrs by sulforhodamine B assay; settings: read-out: Activity
NCI-H460 [11] = assay: Growth inhibition of human NCI-H460 cells assessed as cell growth at 10^-8 M after 48 hrs by sulforhodamine B assay; settings: NCI-H460, 48 h
CAKI-1 [12] = assay: Growth inhibition of human CAKI-1 cells assessed as cell growth at 10^-7 M after 48 hrs by sulforhodamine B assay; settings: CAKI-1, 48 h, read-out: Activity
ACHN = assay: Growth inhibition of human ACHN cells assessed as cell growth at 10^-8 M after 48 hrs by sulforhodamine B assay
CAKI-1 [13] = assay: Growth inhibition of human CAKI-1 cells assessed as cell growth at 10^-6 M after 48 hrs by sulforhodamine B assay; settings: CAKI-1, 48 h, read-out: Activity
[14] = Growth inhibition of human HCC2998 cells assessed as cell growth at 10^-7 M after 48 hrs by sulforhodamine B assay; settings: HCC 2998, 48 h, read-out: Activity
A498 [15] = assay: Growth inhibition of human A498 cells assessed as cell growth at 10^-4 M after 48 hrs by sulforhodamine B assay; settings: A498, 48 h, read-out: Activity
[16] = Growth inhibition of human UACC62 cells assessed as cell growth at 10^-4 M after 48 hrs by sulforhodamine B assay; settings: UACC-62, 48 h, read-out: Activity
[17] = Growth inhibition of human UACC257 cells assessed as cell growth at 10^-7 M after 48 hrs by sulforhodamine B assay; settings: UACC-257, 48 h, read-out: Activity
RPMI-8226 = assay: Growth inhibition of human RPMI8226 cells assessed as cell growth at 10^-4 M after 48 hrs by sulforhodamine B assay; settings: RPMI-8226, 48 h, read-out: Activity
[18] = Growth inhibition of human UO31 cells assessed as cell growth at 10^-4 M after 48 hrs by sulforhodamine B assay; settings: UO-31, 48 h, read-out: Activity
[19] = Growth inhibition of human OVCAR3 cells assessed as cell growth at 10^-8 M after 48 hrs by sulforhodamine B assay; settings: OVCAR-3, 48 h
DU-145 [20] = assay: Growth inhibition of human DU145 cells assessed as cell growth at 10^-6 M after 48 hrs by sulforhodamine B assay; settings: DU-145, 48 h, read-out: Activity
[21] = Growth inhibition of human OVCAR8 cells assessed as cell growth at 10^-8 M after 48 hrs by sulforhodamine B assay; settings: OVCAR-8, 48 h
CAKI-1 [22] = assay: Growth inhibition of human CAKI-1 cells assessed as cell growth at 10^-4 M after 48 hrs by sulforhodamine B assay; settings: CAKI-1, 48 h, read-out: Activity
[23] = read-out: LC50 (the source's name)

Question: For `O=C1/C(=C/c2ccc(Cl)cc2Cl)CN(S(=O)(=O)c2ccccc2)C/C1=C\c1ccc(Cl)cc1Cl`, which GI50 (HT-29) is on record?
Answer: 295 nM

Question: And the LC50 (HT-29)?
Answer: > 100000 nM

Question: What about the growth at 0.01 µM (HT-29; read-out: Activity) of the same compound?
Answer: 102%

Question: What about the TGI (HT-29; read-out: pTGI (converted)) of the same compound?
Answer: 851 nM

Question: What about the growth at 0.1 µM (K562) of the same compound?
Answer: 99%

Question: What about the GI50 [1] of the same compound?
Answer: 1370 nM

Question: And the TGI [1]?
Answer: > 100000 nM

Question: What about the CC50 [1, 23] of the same compound?
Answer: > 100000 nM

Question: And the GI50 (HOP-62 [2])?
Answer: 389 nM

Question: What about the LC50 (concentration killing 50% of cells) (HOP-62 [2]) of the same compound?
Answer: > 100000 nM

Question: What about the growth at 0.01 µM (HOP-62 [2]; read-out: Activity) of the same compound?
Answer: 103%

Question: What about the TGI (HOP-62 [2]; read-out: pTGI (converted)) of the same compound?
Answer: > 100000 nM

Question: And the growth at 0.1 µM (SN12C)?
Answer: 92%

Question: What about the growth at 1 µM (A498 [3]) of the same compound?
Answer: 48%

Question: What about the growth at 100 µM [4] of the same compound?
Answer: 15%

Question: What about the Activity (COLO 205) of the same compound?
Answer: 35.5%

Question: What about the growth at 100 µM (HL-60(TB)) of the same compound?
Answer: -13%

Question: And the growth at 100 µM (SF-268)?
Answer: 4%

Question: What about the GI50 (HOP-62 [5]) of the same compound?
Answer: 385 nM

Question: What about the TGI (HOP-62 [5]) of the same compound?
Answer: > 100000 nM

Question: What about the CC50 (HOP-62 [5]; [23]) of the same compound?
Answer: > 100000 nM

Question: And the GI50 (HCT-116)?
Answer: 200 nM

Question: And the LC50 (HCT-116)?
Answer: 912 nM

Question: And the growth at 0.01 µM (HCT-116; read-out: Activity)?
Answer: 99%

Question: And the TGI (HCT-116; read-out: pTGI (converted))?
Answer: 427 nM

Question: And the GI50 [6]?
Answer: 977 nM

Question: What about the LC50 [6] of the same compound?
Answer: > 100000 nM

Question: What about the growth at 0.01 µM ([6]; read-out: Activity) of the same compound?
Answer: 106%

Question: What about the TGI ([6]; read-out: pTGI (converted)) of the same compound?
Answer: 4170 nM

Question: And the growth at 0.1 µM (NCI-H226)?
Answer: 97%

Question: What about the growth at 0.1 µM (DU-145 [7]) of the same compound?
Answer: 110%

Question: What about the growth at 0.1 µM (NCI-H460 [8]) of the same compound?
Answer: 98%

Question: What about the growth at 1 µM (NCI-H460 [9]) of the same compound?
Answer: -53%

Question: What about the growth at 0.1 µM (786-0) of the same compound?
Answer: 104%

Question: What about the growth at 1 µM [10] of the same compound?
Answer: 10%

Question: And the growth at 0.1 µM (T47D)?
Answer: 96%

Question: What about the GI50 (NCI-H460 [11]) of the same compound?
Answer: 209 nM

Question: What about the LC50 (NCI-H460 [11]) of the same compound?
Answer: 955 nM

Question: What about the growth at 0.01 µM (NCI-H460 [11]; read-out: Activity) of the same compound?
Answer: 103%

Question: What about the TGI (NCI-H460 [11]; read-out: pTGI (converted)) of the same compound?
Answer: 447 nM

Question: And the growth at 0.1 µM (CAKI-1 [12])?
Answer: 92%

Question: What about the GI50 (ACHN) of the same compound?
Answer: 871 nM

Question: And the LC50 (ACHN)?
Answer: > 100000 nM

Question: What about the growth at 0.01 µM (ACHN; read-out: Activity) of the same compound?
Answer: 99%

Question: And the TGI (ACHN; read-out: pTGI (converted))?
Answer: 4570 nM

Question: What about the growth at 1 µM (CAKI-1 [13]) of the same compound?
Answer: 77%

Question: And the growth at 0.1 µM [14]?
Answer: 102%

Question: What about the growth at 100 µM (A498 [15]) of the same compound?
Answer: -8%

Question: What about the growth at 100 µM [16] of the same compound?
Answer: -71%

Question: And the growth at 0.1 µM [17]?
Answer: 90%

Question: And the growth at 100 µM (RPMI-8226)?
Answer: -35%

Question: What about the growth at 100 µM [18] of the same compound?
Answer: -60%

Question: What about the GI50 [19] of the same compound?
Answer: 309 nM

Question: And the LC50 [19]?
Answer: 5010 nM

Question: What about the growth at 0.01 µM ([19]; read-out: Activity) of the same compound?
Answer: 112%

Question: And the TGI ([19]; read-out: pTGI (converted))?
Answer: 813 nM

Question: What about the growth at 1 µM (DU-145 [20]) of the same compound?
Answer: 18%

Question: And the GI50 [21]?
Answer: 229 nM

Question: And the LC50 [21]?
Answer: > 100000 nM

Question: What about the growth at 0.01 µM ([21]; read-out: Activity) of the same compound?
Answer: 99%

Question: What about the TGI ([21]; read-out: pTGI (converted)) of the same compound?
Answer: 955 nM

Question: And the growth at 100 µM (CAKI-1 [22])?
Answer: -11%
